{"source": "patent US6399047B1", "about": "“Benzoxazole derivatives for use in cosmetic compositions and for stabilizing synthetic polymers” (3V Sigma S.p.A., priority 2000, dated 2002)", "origin": "cited, not measured here", "key": {"[1]": {"details": "background statement"}, "[2]": {"details": "background statement", "remark": "listed apart in the source"}}}
{"compound": "COc1ccc(C(=O)c2ccccc2)c(O)c1", "note": "[2-Hydroxy-4-methoxybenzophenone]", "values": [{"measurement": "maximum absorption in the UV-A zone", "setting": "[1]", "result": "about 325 nm"}, {"measurement": "solubility in solvents usually used in cosmetics", "setting": "[2]", "result": "very low"}]}
